Tested on: Oct-4 expression in hESCs
Test: hESCs carrying Oct-4 promoter-driven EGFP reporter, with or without bFGF
Format: cell-based, human
Text: (d) bFGF is critical for sustaining undifferentiated growth of hESCs carrying an Oct-4-driven reporter gene. hESCs carrying a reporter gene (enhanced green fluorescence protein [EGFP]) that is under control of the Oct-4 promoter was generated via lentiviral-mediated transduction.
FIG. 6: (a) Growth of hESCs carrying an Oct-4-driven reporter gene in the presence or absence of bFGF. hESCs carrying a reporter gene (enhanced green fluorescence protein [EGFP]) that is under control of the Oct-4 promoter was generated via lentiviral-mediated transduction. Transfected hESCs were cultivated under the feeder-free conditions in the defined media with bFGF (20 ng/ml) or without bFGF for 4 days. […] The cells were further dissociated and analyzed on a BD FacsSort instrument after staining with 7-aminoactinomycin D (7-AAD) to eliminate the dead cells [E]. With FACS-sorting, significant increases (200%) of Oct4-EGFP negative cells were observed after withdrawal bFGF for 4 days. (Note the actual percentage of Oct4-EGFP negative cells in the absence of bFGF should be even higher, because it takes around 2 days for the green fluorescence to be completely quenched after Oct-4 expression has been turned off.) (b) bFGF concentration in MEF-CM. Growth-arrested MEFs were obtained from Specialty Media (Phillipsburg, N.J.). […] 50 μl of concentrates was loaded onto a SDS/PAGE gel and analyzed by Western blot. […]
To discover the minimal essential conditions needed to support the long-term growth of undifferentiated hESCs, morphological analysis was used to assess the developmental stage of hESCs at different times. […] The state of differentiation of hESC was further assessed by generating (via lentiviral-mediated transduction) hESCs carrying a reporter gene (enhanced green fluorescence protein (EGFP)) under control of the Oct-4 promoter. Using these transfected hESCs (carrying Oct-4 driven EGFP), the undifferentiated state of hESCs can be visualized by green fluorescence (indicating Oct-4 expression). […]

Substance: bFGF: basic fibroblast growth factor, growth factor added to the defined hESC media
- cells inside colonies with differentiated morphology that ceased Oct-4 expression (absence of bFGF, first passage (day 7 after seeding)): more than 70%
- morphology and Oct-4-driven EGFP fluorescence of hESC colonies (defined media containing 20 ng/ml bFGF, feeder-free): undifferentiated morphology and strong green fluorescence
- increase of Oct4-EGFP negative cells by FACS (withdrawal of bFGF for 4 days): 200%

Reference: patent publication US20080241919A1, “Defined media for pluripotent stem cell culture” (The Burnham Institute of Medical Research, priority 2003, published 2008)
